Measurements reported in article PMC11830387, “KIRA6 is an Effective and Versatile Mast Cell Inhibitor of IgE‐mediated Activation” (European Journal of Immunology, 2024).

What was measured:
LYN [1] = molecular target: T1, LYN (Homo sapiens, UniProt P07948); assay: MicroScale thermophoresis, supported by nanoDSF thermal shift; assay type: binding
T1 construct: recombinant human active protein kinase LYN (ProQinase, #0358-0000-1)

LYN [2] = molecular target: T2, LYN (Mus musculus, UniProt P25911); assay: in vitro kinase assay with immunoprecipitated LYN and GST-SH3P7 substrate; assay type: biochemical
T2 construct: LYN immunoprecipitated from unstimulated BMMCs

FYN = molecular target: T3, FYN (Homo sapiens, UniProt P06241); assay: MicroScale thermophoresis, supported by nanoDSF; assay type: binding
T3 construct: recombinant human active protein kinase FYN (ProQinase, #0352-0000-1)
T3 sequence (P06241 2-537): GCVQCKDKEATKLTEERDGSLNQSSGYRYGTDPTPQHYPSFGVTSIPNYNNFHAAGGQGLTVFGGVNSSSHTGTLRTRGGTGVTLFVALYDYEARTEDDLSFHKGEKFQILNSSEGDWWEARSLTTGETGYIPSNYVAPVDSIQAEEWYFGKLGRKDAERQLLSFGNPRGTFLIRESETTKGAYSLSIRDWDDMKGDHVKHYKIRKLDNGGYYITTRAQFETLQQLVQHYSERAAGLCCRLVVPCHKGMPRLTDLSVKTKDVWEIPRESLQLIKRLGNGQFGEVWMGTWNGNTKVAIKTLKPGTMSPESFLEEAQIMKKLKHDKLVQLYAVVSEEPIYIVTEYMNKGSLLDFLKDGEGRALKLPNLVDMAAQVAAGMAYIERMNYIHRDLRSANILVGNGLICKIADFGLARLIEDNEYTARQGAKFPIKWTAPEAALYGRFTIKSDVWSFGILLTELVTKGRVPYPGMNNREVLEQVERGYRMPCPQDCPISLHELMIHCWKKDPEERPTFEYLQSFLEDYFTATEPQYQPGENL

T2 sequence (P25911 2-512): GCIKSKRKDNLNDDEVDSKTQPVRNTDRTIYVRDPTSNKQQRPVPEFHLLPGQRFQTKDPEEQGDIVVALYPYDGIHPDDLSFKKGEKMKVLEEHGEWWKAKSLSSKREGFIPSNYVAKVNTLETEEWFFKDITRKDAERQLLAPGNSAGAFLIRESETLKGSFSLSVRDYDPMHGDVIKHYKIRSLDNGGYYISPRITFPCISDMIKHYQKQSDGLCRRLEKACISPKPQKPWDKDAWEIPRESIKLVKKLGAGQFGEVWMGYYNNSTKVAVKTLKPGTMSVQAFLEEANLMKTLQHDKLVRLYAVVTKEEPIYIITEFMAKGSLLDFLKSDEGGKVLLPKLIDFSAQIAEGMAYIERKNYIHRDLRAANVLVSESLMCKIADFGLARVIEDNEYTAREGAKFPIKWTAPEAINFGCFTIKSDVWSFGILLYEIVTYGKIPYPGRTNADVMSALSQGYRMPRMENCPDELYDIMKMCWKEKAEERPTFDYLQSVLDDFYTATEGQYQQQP
T1 sequence (P07948 2-512): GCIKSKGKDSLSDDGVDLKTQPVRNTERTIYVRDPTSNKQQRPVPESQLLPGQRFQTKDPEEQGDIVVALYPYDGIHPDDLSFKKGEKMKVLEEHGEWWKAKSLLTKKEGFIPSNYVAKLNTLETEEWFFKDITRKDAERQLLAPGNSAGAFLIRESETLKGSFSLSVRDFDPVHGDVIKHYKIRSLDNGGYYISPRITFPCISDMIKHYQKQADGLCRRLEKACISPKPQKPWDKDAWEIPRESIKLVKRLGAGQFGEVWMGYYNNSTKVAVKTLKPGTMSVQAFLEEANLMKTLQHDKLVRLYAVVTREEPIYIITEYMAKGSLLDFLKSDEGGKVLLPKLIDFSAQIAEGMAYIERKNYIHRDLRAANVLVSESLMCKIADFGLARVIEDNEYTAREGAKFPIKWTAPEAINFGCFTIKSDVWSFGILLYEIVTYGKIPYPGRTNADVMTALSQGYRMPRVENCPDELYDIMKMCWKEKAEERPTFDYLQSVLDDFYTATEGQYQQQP

- Kd (LYN [1]): 3.2 ± 1.2 µM
- IC50 (LYN [2]): ~300 nM
- Kd (FYN): 8.4 ± 2.6 µM
SMILES: CC(C)(C)c1nc(-c2ccc(NC(=O)Nc3cccc(C(F)(F)F)c3)c3ccccc23)c2c(N)nccn12 [KIRA6]
